Test results published in US9481709B2, “Boropeptide inhibitors of enteropeptidase and their uses in treatment of obesity, overweight and/or diseases associated with an abnormal fat metabolism” (OBE THERAPY BIOTECHNOLOGY, priority 2007, dated 2016).

Test: Effect on absorption of 14C-proteins after oral administration
Type: in vivo
Settings: for Cmax of 14C-protein radioactivity in plasma: control 0.9%±0.27; for AUC mean of 14C-protein radioactivity in plasma: control 2.214±0.1875; for plateau concentration of 14C-protein radioactivity in plasma: 1 h to 4 h post-administration, control 0.5%
Procedure: 3. Effect of OBE2001 on Protein Absorption
This third in vivo experiment was designed to obtain information on the absorption of ^14C-proteins in absence or in presence of OBE2001 at two different doses (5 mg/Kg or 50 mg/Kg) after an oral administration to male Swiss mice.
15 male Swiss (CD-1) mice, 5 weeks-old and having a mean body weight of 0.021±0.002 kg were divided in 3 groups: • Control Group (G1; solvant) containing 5 mice, received water at 5 mL/Kg at t-5 min and ^14C-proteins at 10 mL/Kg at T=0 min; • Group 2 (G2) containing 5 mice (OBE 5 mg/Kg), received OBE2001 at 5 mg/Kg at t-5 min and ^14C-proteins at 10 mL/Kg at T=0 min; • Group 3 (G3) containing […] (OBE 50 mg/Kg), received OBE2001 at 50 mg/Kg at t-5 min and ^14C-proteins at 10 mL/Kg at T=0 min.
A preparation containing 5 ml of Clinoleic 20 (Baxter Ref DDB9500) with 1 g of glucose (Sigma; ref:G8270) and 1 g of casein (Sigma; ref: C3400) was prepared. Water was added until the solution reached 10 ml. After concentration of the radioactive solution containing the ^14C proteins (GE Healthcare; ref: CFA626) (×10), 200 μl of this radioactive solution was added to 2.8 ml of the preparation, in order to reach a concentration of ca 3.3 μCi/ml. The animals were starved before administration of this radioactive preparation. The radioactive preparation was orally administered by intragastric gavage with a single dosing (ca 33.3 μCi/kg) in a volume of ca 10 ml/kg of body weight.
OBE2001 was provided in a mixture of two salts (HCl and TFA) with a 90% purity. OBE2001 was orally administered by intragastric gavage with a single dosing of 5 mg/Kg for G2 and 50 mg/Kg for G3 in a volume of ca 5 mL/kg body-weight.
Plasma aliquots were removed and placed into 6 ml pre-weighed plastic vials, at t+15, t+30, t+60, t+120 and t+240 min. About 4 ml Pico-fluor 40 was added and after shaking, the total radioactivity contained within the different samples was determined by liquid scintillation using a Packard 1900 CA spectrometer equipped with an external standard system (spectral analysis). A quenching curve for calibration purposes was set up using a ^14C quenched set supplied by Packard Instruments.
Liquid scintillation (LS) Counting was carried out with 2 sigma=2%, and for a maximum duration of 5 minutes (according to the method created in the 1900CA® software). Dpm (disintegration per minute) values of less than twice the background level of blank biological medium were reported as BLQ (Below the Limit of Quantitation).

CC(=O)N[C@@H](C)C(=O)N[C@@H](Cc1ccccc1)C(=O)N[C@@H](CCCNC(=N)N)B1OC2C[C@@H]3C[C@@H](C3(C)C)[C@]2(C)O1 (some centres unmarked) [OBE2001]
Cmax of 14C-protein radioactivity in plasma (5 mg/kg oral at t-5 min): 0.58%±0.54 % of administered dose/g
AUC mean of 14C-protein radioactivity in plasma (5 mg/kg): 1.841±0.6402 % dose.h.g-1
Cmax of 14C-protein radioactivity in plasma (50 mg/kg oral at t-5 min): 0.54%±0.24 % of administered dose/g
AUC mean of 14C-protein radioactivity in plasma (50 mg/kg): 1.718±0.4366 % dose.h.g-1
plateau concentration of 14C-protein radioactivity in plasma (5 mg/kg): 0.4 % administered dose/g
plateau concentration of 14C-protein radioactivity in plasma (50 mg/kg): 0.4 % administered dose/g
protein absorption compared to control mice (first 30 minutes after protein administration, maintained at least 4 hours): greatly decreased
morbidity or mortality (single oral dose 5 or 50 mg/kg, male Swiss mice): no sign of morbidity or mortality occurred
